The experiment concerns CD4 and CD8 T lymphocytes. In words: Suppression of stimulated T cell proliferation (CFSE) by drug pre-incubated MSC. Format: cell-based, human. The note with it: MSC pre-incubated with 50 ng/ml; FIG. 6. How it is done: MSC derived from (FIG. 1A,E) bone marrow (BM) or (FIG. 1B-D) two independent umbilical cord (UC) preparations (WJ6060:FIG. 1B-C; WJ24-0: FIG. 1D) were incubated with Rapamycin overnight at concentrations from 0.4 to 50 ng/ml, or without drug (control (Ctl)). The MSC were washed, trypsinised, and plated in fresh medium without Rapamycin at 1, 5, and 25 k per well in 96 well plates. After 2-4 hours, human adult peripheral blood mononuclear cells (MNC) labelled with carboxyfluorescein succinimidyl ester (CFSE) were added, and the T lymphocytes therein were stimulated to proliferate with Phytohemagglutinin (PHA) (FIG. 1A-D) or anti-CD3, CD28 activation beads (FIG. 1E). Proliferation levels were determined after 3 days as described in the Methods section. […]
After 3-4 (PHA or bead stimulation) or 5-6 days (allostimulation) the cultures were analysed by flow cytofluorometry after staining for CD3 and CD4, and the CFSE dye-dilution profiles of CD3+CD4+ (CD4) and CD3+CD4- (CD8) lymphocytes were used to calculate proliferation indices (Lyons (2000)). To normalise the level of proliferation between experiments, the proliferation indices were calculated as: (proliferation index for condition X−proliferation index for unstimulated cells)/(proliferation index for PHA or bead stimulated control cells−proliferation index for unstimulated cells). […]

Experimental findings from patent publication US20150374755A1, “Treated Cells and Therapeutic Uses” (NHS BLOOD & TRANSPLANT, priority 2013, published 2015) are described below.

Turning to `CCC(=O)N1CCN(c2ccc(-n3c(=O)ccc4cnc5ccc(-c6cnc7ccccc7c6)cc5c43)cc2C(F)(F)F)CC1` [Torin 1], the “super-suppression by pre-incubated MSC” value was “no significant super-suppression”.
